Experiments:
[1] = tested on: HIF ODD-luc reporter (HIF PHD-controlled stability); experiment: HTS with cell-based HIF ODD-luciferase reporter (SH-SY5Y-ODD-luc cells); parameters: species or system human; conditions: three hours; for activation at 10 µM: Homo sapiens, 3 h, read-out: reporter activation (%) relative to ciclopirox (100%) and DMSO (0%)
Source text: For HTS, a cell-based reporter system was employed. The cell-based reporter system was generated by fusing HIF-1a oxygen degradable domain (ODD) to luciferase (Safran M. et al., PNAS, 2006, 103, 105-110), which represents a cell-based capture assay monitored by the consumption of the luciferase-labeled HIF substrate under the conditions more physiological than in vitro test tubes. In accord with their structure activity relationship in reporter assay, the best “hits” stabilize HIF1, upregulate known HIF target genes in a human neuronal line, and exert neuroprotective effects in established model of oxidative stress in cortical neurons.
The reporter cell lines constitutively expressing ODD-luc (human neuroblastoma, SH-SY5Y) were stable for more than one year without significant change in their response to canonical PHD inhibitors such as DFO, dihydroxybenzoate (DHB), dimethyloxalylglycine (DMOG), and ciclopirox (FIG. 1B). In order to verify the specificity of luciferase changes as an assay for PHD activity, several control lines were developed: the control line expressing ODD-luc with proline 564 and 567 mutated to Ala generates luciferase fusion that cannot be degraded and experimentally identifies a ceiling level of ODD-luc protein attainable in these cells. The background signal for the wild-type HIF ODD-luc line (PYIP) corresponds to approximately 5-6% of the ODD-luc levels in the control line AYIA (double mutant P564A/P567A line) (FIG. 2). Treatment with 10 μM ciclopirox results in a 10-fold increase of a background signal for the wild-type ODD-luc reporter (PYIP line), i.e. reaches almost 50% of the threshold value (FIG. 2).
The assay was optimized for HTS format to provide Z values above 0.7. SH-SY5Y-ODD-luc cells were plated into 384—well white flat-bottom plates at 7,000 cell/well in 30 μl of serum and incubated overnight at 37° C., 5% CO2. The next day, compounds were added to a final concentration of 10 μM, plates were incubated for three hours at 37° C., and luciferase activity was measured using SteadyGlo™ reagent (Promega). Each plate had two internal standards, ciclopirox (100%), and DMSO (0%). The reporter activation (%) was calculated as a ratio (L−LDMSO)/(Lciclopirox−LDMSO). Hits were defined as those >25%. HTS of 85,000 compounds was performed at Rockefeller HTS Resource Center. 295 hits from the initial screen have been tested in quadruplicate, 160 were confirmed. Classification into 10 structural clusters has been done manually; 25 hits were singletons.

[2] = tested on: HIF ODD-luc reporter (HIF PHD-controlled stability); experiment: ODD-luc reporter, concentration titration and kinetics of reporter activation (extended SAR); assay type: cell-based, human; conditions: for Ki: linear plot 1/(K0−v) vs inhibitor concentration, read-out: apparent inhibition constant from time course of reporter activation
Source text: The HIF ODD-luciferase reporter system is controlled by the rate of PHD catalyzed reaction, and from an enzyme kinetics point of view, it is a “capture assay” monitored by the consumption of a substrate, the heterologously expressed HIF ODDluciferase fusion protein. In the kinetic regime, i.e. monitoring the time-course of luminescence changes (FIG. 3A), the ODD-luc reporter system permits quantitative characterization of promoter capacity (Ko, rate of fusion protein generation), enzyme activity, and inhibition constant determination.
The rate of fusion accumulation equals the rate of its production (Ko) minus the rate of the rate-limiting step, controlled by HIF PHDs, which obeys Michaelis-Menten kinetics, as follows: v=d[ODDluc]/dt=K0−k1[PHD][ODDluc]/{Km(1+[I]/K1)+[ODDluc]} (Eq.1)
The background luminescence signal calibrated with recombinant luciferase allows an estimation of the steady-state concentration of the ODD-luc fusion protein. Under the conditions used the steady-state value of 60 rlu (relative light units) corresponds to 1 pg luciferase protein; dividing this number by the total cell volume taken as a single cell volume (233μ^3) multiplied by 30,000 cells/well density (number of cells in a 96 well dish), the ODD-luc fusion protein steady-state concentration is found to be equal to 2.3 nM, which is well below all reported Km values for HIF1 (Dao, J. H., et al., Anal Biochem 384, 213-223 2009; Hewitson, K. S., et al., Methods Enzymol 435, 25-42 2007; Koivunen, P., et al., J Biol Chem 281, 28712-28720 2006; Tuckerman, J. R., et al., FEBS Lett 576, 145-150 2004. Therefore, it is preferable to work under nonsaturating conditions with respect to HIF substrate, i.e. optimal conditions for selecting inhibitors competitive against HIF substrate. Moreover, as compared to the in vitro assay, which uses a 19 amino acid peptide fragment surrounding the oxygen dependent domain (ODD), the instant ODD-luciferase construct contains 123 amino acid acids, and thus, more closely emulates the behavior of native HIF. The initial concentration of fusion can be considered much lower than Km, and thus, can be ignored in the rate equation: v=d[ODDluc]/dt=K0−k1[PHD][ODDluc]/Km(1+[I]/K1) (Eq.2)
Knowing the capacity of the promoter, the inhibition constant can be determined, but not the inhibition type, from the initial rates of signal accumulation at varied fixed concentrations of potential inhibitor. The capacity of promoter, K0 can be determined under the conditions of total inhibition of PHD activity by means of complete iron deprivation achieved in the presence of high concentrations of ciclopirox, i.e. when the increase in the ciclopirox concentrations give no further increase in the rate of luciferase signal growth (FIG. 3B). […]

[3] = Iron binding by calcein displacement from its iron complex; assay type: physicochemical
Description: The iron chelation ability is determined by displacement of calcein from its complex with iron monitored by fluorescence (excitation 490 nm, emission 523 nm, cut-off 515 nm) on a Spectramax M5e platereader (Molecular Devices). The apparent binding constant for calcein (ca.50 nM) was determined from Fe titration curve for 1 μM calcein in 5 mM Tris-HCl buffer, pH 7.5. The ratio between the iron binding constant for calcein and a particular compound, i.e., KQ/KCa, was estimated by fitting the titration curve into the dependence of [Fe]o vs. Y, where Y═[Ca—Fe]/[Ca] is a ratio of calcein-bound Fe to free (fluorescent) calcein: [Fe]o=KCaY+[Ca]oY/(Y+1)+[Q]oY/(Y+KQ/KCa) (Eq.4)
The association rate constant was determined as the second order rate constant for calcein displacement from its complex with iron (1 μM:1 μM) upon addition of an oxyquinoline (5-20 μM) calculated from the slope of a linear plot of the initial rate of calcein release vs. the concentration of oxyquinoline added. All experiments were performed in triplicates or more. All values are presented as mean±S.E.M.

CCC(C)C(N)C(=O)Nc1nnc(-c2ccc(Br)cc2)s1 (stereo not drawn) [2-amino-N-(5-(4-bromophenyl)-[1,3,4]thiadiazol-2-yl)-3-methylpentanamide]
reporter activation in HTS, in words ([1]; 10 μM): no reporter activation at all

COc1ccc(-c2nnc(NC(=O)C(N)Cc3ccccc3)s2)cc1 (stereo not drawn) [2-amino-N-(5-(4-methoxy-phenyl)-[1,3,4]thiadiazol-2-yl)-3-phenylpropanamide]
reporter activation in HTS, in words ([1]; 10 μM): no reporter activation at all

O=C(C=C(O)c1ccccc1)c1ccccc1O [2′β-dihydroxychalcone]
fold reporter activation over background ([1]; 10 μM, SH-SY5Y-ODD-luc): 7.5 fold | reporter activation (%) relative to ciclopirox (100%) and DMSO (0%) ([1]; 10 μM, SH-SY5Y-ODD-luc): 71%

Oc1cccc(CN2CCCn3cccc3C2c2ccc(F)cc2)c1O (stereo not drawn) [3-((1-(4-fluorophenyl)-4,5-dihydro-1H-pyrrolo[1,2-a][1,4]diazepin-2(3H)-yl)methyl)benzene-1,2-diol]
activation at 10 µM ([1]; SH-SY5Y-ODD-luc): 40%

Oc1cccc(CN2CCN(CCOC(c3ccccc3)c3ccc(F)c(F)c3)CC2)c1O (stereo not drawn) [3-((4-(2-((3,4-difluorophenyl) (phenyl)methoxy)ethyl)piperazin-1-yl)methyl)benzene-1,2-diol]
activation at 10 µM ([1]; SH-SY5Y-ODD-luc): 60%

FC(F)(F)c1ccccc1-n1c(S)nnc1-c1nccc2ccccc12 [5-isoquinolin-1-yl-4-(2-trifluoromethyl-phenyl)-4H-[1,2,4]triazole-3-thiol]
reporter activation in HTS, in words ([1]; 10 μM): close to that for the internal standard

O=C1/C(=N\Nc2nc3ccccc3s2)C(c2ccccc2)=NN1c1ccccc1 [(Z)-4-(benzo[d]thiazol-2-ylhydrazono)-1,3-diphenyl-1H-pyrazol-5(4H)-one]
activation at 10 µM ([1]; SH-SY5Y-ODD-luc): 70%

N[C@H](Cc1ccc(O)c(O)c1)C(=O)O [D-dopa, reference compound]
reporter activation in HTS, in words ([1]; 10 μM): not

CCOC(=O)c1ccc(O)c(O)c1 [DHB, Ethyl-3,4-dihydroxybenzoate]
concentration at which the reporter is activated ([2]; FIG. 1B): > 50 µM | Ki [2]: 520 µM

COC(=O)CNC(=O)C(=O)OC [DMOG, dimethyloxalylglycine]
Ki [2]: 1300 µM

O=C1/C(=N\Nc2nccs2)C(c2ccccc2)=NN1c1ccccc1 [I, (Z)-1,3-diphenyl-4-(thiazol-2-yl-hydrazono)-1H-pyrazol-5(4H)-one]
activation at 10 µM ([1]; SH-SY5Y-ODD-luc): 86%

NNc1nc(-c2ccccc2)cc(-c2ccccc2)n1 [II, 2-hydrazinyl-4,6-diphenylpyrimidine]
iron binding / chelation ability in solution, in words [3]: no iron chelation properties in solution | fold reporter activation over background ([1]; 10 μM, SH-SY5Y-ODD-luc): 6.7 fold | activation at 10 µM ([1]; SH-SY5Y-ODD-luc): 64%

S=C(Nc1ccccc1)Nc1nccs1 [III, 1-phenyl-3-(1,3-thiazol-2-yl)thiourea]
fold reporter activation over background ([1]; 10 μM, SH-SY5Y-ODD-luc): five-fold | activation at 10 µM ([1]; SH-SY5Y-ODD-luc): 41%

O=C(Nc1nnc(-c2cccc(Br)c2)s1)C1CCCN1 (stereo not drawn) [IV, N-[5-(3-bromophenyl)-[1,3,4]thiadiazol-2-yl]pyrrolidine-2-carboxamide]
activation at 10 µM ([1]; SH-SY5Y-ODD-luc): 35%

N[C@@H](Cc1ccc(O)c(O)c1)C(=O)O [L-Dopa, reference compound]
fold reporter activation over background ([1]; 10 μM, SH-SY5Y-ODD-luc): 3 fold | activation at 10 µM ([1]; SH-SY5Y-ODD-luc): 21% | IC50 ([2]; Homo sapiens, ODD-luc reporter): 15 µM

CC(C)n1c(S)nnc1-c1nccc2ccccc12 [V, 4-isopropyl-5-isoquinolin-1-yl-4H-[1,2,4]triazole-3-thiol]
reporter activation in HTS, in words ([1]; 10 μM): close to that for the internal standard | activation at 10 µM ([1]; SH-SY5Y-ODD-luc): 90%

O=C1/C(=C\c2ccc(O)c(O)c2)SC(=S)N1c1ccccc1 [VI, (E)-5-(3,4-dihydroxybenzylidene)-3-phenyl-2-thioxothiazolidin-4-one]
activation at 10 µM ([1]; SH-SY5Y-ODD-luc): 38%

Oc1c(Br)cc(Br)c2cccnc12 [broxyquinoline, reference compound]
reporter activation in HTS, in words ([1]; 10 μM): comparable

C[C@@](Cc1ccc(O)c(O)c1)(NN)C(=O)O [carbidopa, reference compound]
reporter activation in HTS, in words ([1]; 10 μM): not

O=C(CCl)c1ccc(O)c2ncccc12 [chloroacetoquinoline]
reporter activation in HTS, in words ([1]; 10 μM): comparable to 8-hydroxyquinoline itself

Oc1c(Cl)cc(Cl)c2cccnc12 [chloroxine, reference compound]
reporter activation in HTS, in words ([1]; 10 μM): comparable

Cc1cc(C2CCCCC2)n(O)c(=O)c1 [ciclopirox, reference compound]
fold reporter activation over background ([1]; 10 μM, SH-SY5Y-ODD-luc): 10 fold

Oc1c(I)cc(Cl)c2cccnc12 [clioquinol, reference compound]
reporter activation in HTS, in words ([1]; 10 μM): comparable

NCCc1ccc(O)c(O)c1 [dopamine, reference compound]
reporter activation in HTS, in words ([1]; 10 μM): not

CC1=NN(c2ccccc2)C(=O)C1 [edaravone, reference compound]
reporter activation in HTS, in words ([1]; 10 μM): no reporter activation

From patent US9505741B2, “Prolylhydroxylase inhibitors and methods of use” (CORNELL UNIVERSITY, priority 2010, dated 2016)
